Laboratory results: US11034742B2, “Peptides with antibiotic potential against Mycobacterium tuberculosis” (LINNANE PHARMA AB, priority 2017, dated 2021)
Entries after “also recorded” stand apart in the source; their conditions may differ. Read-outs that look alike come from different tables or passages of the source. Marks after values point to notes of the source that are not given here. Positions of bridges follow the written chain, without caps; N, C: chain ends. Residues, ends and D or L forms follow the SMILES beside them.

Columns and labels:
[1] = system: primary human macrophages; experiment: Cytotoxicity, MTT assay; format: cell-based; conditions: for macrophage viability (MTT): 6.3 μM peptide concentration; for toxicity to human cells / macrophages (in words): primary human macrophages
Experimental: (§1) Human venous blood mononuclear cells were obtained from healthy volunteers using a Lymphoprep density gradient (Axis-Shield, Oslo, Norway) according to the manufacturers instructions. To obtain pure monocytes, the cell suspension was applied to CD14 micro beads (MACS), washed and passed through magnetic column according to manufacturers description. The monocytes were counted (Sysmex), diluted in RPMI medium containing GM-CSF (50 ng/mL) and seeded in 96-well plates (10^5/well) for a week to differentiate into macrophages.
(§2) Primary macrophages were prepared from whole blood (see above). The medium was replaced with fresh medium containing 0, 6.3, 12.5, 25 or 100 μM peptides and incubated for 0, 1, 4 and 24 h in 5% CO2 atmosphere. For cytotoxicity measurement, 10 μl 3-(4,5-dimethylthiazol-2-yl)-2,5 diphenyltetrazolium bromide (MTT) solution (Sigma) was added to each well according to manufacturers instructions, and analyzed in a spectrophotometer at 580 nm.

[2] = Cytotoxicity, MTT assay; format: cell-based, human; conditions: human, primary human monocyte-derived macrophages; 6.3 μM peptide concentration; read-out: macrophage viability (MTT)
Experimental: as §1, §2

[3] = system: M. tuberculosis H37Rv and clinical isolate TB2016/268; format: cell-based, Mycobacterium tuberculosis
[4] = system: M. tuberculosis; conditions: Table 1; from Schon et al. 2009; cited from earlier work
[5] = system: M. tuberculosis H37Rv; format: in vivo, BALB/c mice; conditions: 0.83 mg
[6] = biological target: T1, human neutrophil elastase (HNE) (Homo sapiens, UniProt P08246); experiment: Protease sensitivity assay, HNE; format: in vitro ADME; conditions: isolated human neutrophil elastase (HNE), after 22 hours, 37° C., read-out: peptide breakdown by HNE
T1 construct: purchased Calbiochem (La Jolla, Calif.)
T1 sequence (P08246 30-267): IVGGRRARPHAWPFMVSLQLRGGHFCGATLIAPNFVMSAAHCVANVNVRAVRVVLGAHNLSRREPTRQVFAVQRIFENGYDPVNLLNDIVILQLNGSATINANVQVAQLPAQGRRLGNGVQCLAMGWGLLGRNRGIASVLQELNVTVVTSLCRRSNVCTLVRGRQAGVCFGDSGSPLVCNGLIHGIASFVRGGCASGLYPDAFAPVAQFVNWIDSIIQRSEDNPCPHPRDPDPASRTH
Experimental: (§3) The variant antimicrobial peptide of SEQ ID NO: 3 (1 μg) was incubated at 37° C. with human neutrophil elastase (HNE, 0.4 μg, 29 units/mg; Calbiochem (La Jolla, Calif.), Cathepsin G (0.4 μg, EMD Millipore) and human α-thrombin (0.4 μg Innovative Research) in a total volume of 20 μL for 6 h. Furthermore 2 μg of the variant antimicrobial peptide of SEQ ID NO: 3 was incubated with 0.4 μg of HNE for kinetic study of peptide degradations. The materials were analyzed on 10-20% precast SDS-PAGE Tris-Tricine gels (Life Technologies) and analyzed after staining with Coomassie Blue R-250. […]

[7] = system: primary human macrophages; experiment: Cytotoxicity, ATPlite (cellular ATP levels); format: cell-based; conditions: 100 μM, 24 hours
Experimental: as §1
(§4) The variant antimicrobial peptide of SEQ ID NO: 3 cytotoxicity was further examined by PrestoBlue® and ATPlite™ assays. Primary macrophages were treated with 100 μM variant antimicrobial peptide of SEQ ID NO: 3 or 50 μM Staurosporine (S-4400, Sigma) for 24 hours. Cell viability was assessed with PrestoBlue® fluorescence (A13261, Thermo Scientific) and cellular ATP levels using ATPlite™ kit (#6016943, Perkin Elmer) compared to untreated control, according to the manufacturers' instructions.

[8] = biological target: T2, human α-thrombin (Homo sapiens, UniProt P00734); experiment: Protease sensitivity assay, α-thrombin; format: in vitro ADME; conditions: 37° C., 6 h
T2 construct: human α-thrombin (0.4 μg Innovative Research); purchased Innovative Research
Experimental: as §3

[9] = system: primary human macrophages; experiment: Cytotoxicity, PrestoBlue (reducing metabolites); format: cell-based; conditions: 100 μM, 24 hours
Experimental: as §1, §4

[10] = system: M. tuberculosis H37Rv; experiment: Murine TB model, lung histology and immunohistochemistry; parameters: species or system BALB/c mice; conditions: mouse, in vivo
[11] = system: M. tuberculosis H37Rv and TB2016/268; format: cell-based, Mycobacterium tuberculosis; conditions: gold-labelled peptide, 6.3 μM
[12] = biological target: T3, Cathepsin G (Homo sapiens, UniProt P08311); experiment: Protease sensitivity assay, Cathepsin G; format: in vitro ADME; conditions: 37° C., 6 h
T3 construct: purchased EMD Millipore
T3 sequence (P08311 21-244): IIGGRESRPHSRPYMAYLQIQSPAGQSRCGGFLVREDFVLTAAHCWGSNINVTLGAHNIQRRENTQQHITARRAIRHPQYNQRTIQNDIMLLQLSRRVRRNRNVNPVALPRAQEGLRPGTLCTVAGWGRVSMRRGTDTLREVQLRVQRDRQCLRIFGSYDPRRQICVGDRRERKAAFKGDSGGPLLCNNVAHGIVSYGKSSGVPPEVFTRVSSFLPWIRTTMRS
Experimental: as §3

| Structure (SMILES) | macrophage viability (MTT) [1] | toxicity to human cells / macrophages (in words) [1] | viability at 6.3 µM [2] | Mycobacterial killing efficiency [3] | MIC (mg/L) [4] | MIC (μM) [4] | lung CFU reduction vs control animals ([5]; five days of daily intra-tracheal treatment) | lung CFU reduction vs control animals ([5]; three days of daily intra-tracheal treatment) | metabolised at 22 h [6] | toxicity, cellular ATP levels (ATPlite) [7] | peptide degradation by human α-thrombin [8] | toxicity, reducing metabolites (PrestoBlue) [9] | lung tissue damage, inflammation, bacterial and neutrophil counts (IHC, H&E) [10] | association of peptide with the mycobacterial membrane (TEM) [11] | peptide degradation by Cathepsin G [12] |
| --- | --- | --- | --- | --- | --- | --- | --- | --- | --- | --- | --- | --- | --- | --- | --- |
| CC[C@H](C)[C@@H]1NC(=O)[C@H](C)NC(=O)[C@@H]2CSSC[C@H](NC(=O)CNC(=O)[C@H](Cc3ccccc3)NC(=O)CN)C(=O)N[C@@H](CC(N)=O)C(=O)NCC(=O)N3CCC[C@H]3C(=O)N[C@@H](Cc3c[nH]c4ccccc34)C(=O)N[C@@H](CO)C(=O)N[C@@H](CCC(=O)O)C(=O)N[C@@H](CC(=O)O)C(=O)N[C@@H](CC(=O)O)C(=O)N[C@@H]([C@@H](C)CC)C(=O)N[C@@H](CCC(N)=O)C(=O)N[C@H]3CSSC[C@H](NC(=O)[C@H](C(C)C)NC(=O)[C@H](Cc4ccccc4)NC(=O)CNC(=O)CNC1=O)C(=O)N[C@@H](CCCCN)C(=O)N[C@H](C(=O)N[C@@H](Cc1ccc(O)cc1)C(=O)O)CSSC[C@H](NC(=O)[C@H](Cc1c[nH]cn1)NC(=O)[C@H](CC(N)=O)NC(=O)[C@H](Cc1c[nH]cn1)NC3=O)C(=O)N[C@@H](CCCCN)C(=O)N[C@@H](CO)C(=O)N[C@@H]([C@@H](C)CC)C(=O)N[C@@H](CCCCN)C(=O)NCC(=O)N[C@@H](Cc1ccc(O)cc1)C(=O)N[C@@H](CCCCN)C(=O)NCC(=O)NCC(=O)N[C@@H](Cc1ccc(O)cc1)C(=O)N2 [SEQ ID NO: 4] (H-GFGCNGPWSEDDIQCHNHCKSIKGYKGGYCAIGGFVCKCY-OH; disulfide 4-30, 15-37, 19-39 (inferred); N-terminus and C-terminus assumed) | 86.3% | not Toxic to Human Cells | 86.3% | 74.8% |  |  |  |  |  |  |  |  |  |  |  |
| NNC(=O)c1ccncc1 [Isoniazid] |  |  |  |  | 0.2* mg/L | 1.5* μM |  |  |  |  |  |  |  |  |  |
| CC[C@@H](CO)NCCN[C@@H](CC)CO [Ethambutol] |  |  |  |  | 5.0* mg/L | 24.5* μM |  |  |  |  |  |  |  |  |  |
| CC[C@H](C)[C@@H]1NC(=O)[C@H](CO)NC(=O)[C@H](CCCCN)NC(=O)[C@@H]2CSSC[C@@H](C(=O)N[C@@H](Cc3ccc(O)cc3)C(=O)O)NC(=O)[C@H](CCCCN)NC(=O)[C@@H]3CSSC[C@H](NC(=O)[C@H](CCC(N)=O)NC(=O)[C@H]([C@@H](C)CC)NC(=O)[C@H](CC(=O)O)NC(=O)[C@H](CC(=O)O)NC(=O)[C@H](CCC(=O)O)NC(=O)[C@H](CO)NC(=O)[C@H](Cc4c[nH]c5ccccc45)NC(=O)[C@@H]4CCCN4C(=O)CNC(=O)[C@H](CC(N)=O)NC(=O)[C@@H](NC(=O)CNC(=O)[C@H](Cc4ccccc4)NC(=O)CN)CSSC[C@H](NC(=O)[C@H](Cc4ccc(O)cc4)NC(=O)CNC(=O)CNC(=O)[C@H](CCCCN)NC(=O)[C@H](Cc4ccc(O)cc4)NC(=O)CNC(=O)[C@H](CCCCN)NC1=O)C(=O)N[C@@H](C)C(=O)N[C@@H](CCCNC(=N)N)C(=O)NCC(=O)NCC(=O)N[C@@H](Cc1ccccc1)C(=O)N[C@@H](C(C)C)C(=O)N3)C(=O)N[C@@H](Cc1c[nH]cn1)C(=O)N[C@@H](CC(N)=O)C(=O)N[C@@H](Cc1c[nH]cn1)C(=O)N2 [SEQ ID NO: 3] (H-GFGCNGPWSEDDIQCHNHCKSIKGYKGGYCARGGFVCKCY-OH; disulfide 4-30, 15-37, 19-39 (inferred); N-terminus and C-terminus assumed) | 87.5% | not Toxic to Human Cells | 87.5% | 73.8% |  |  | 86% | 46% | ~50% | did not show any toxicity | only HNE showed peptide degradation | did not show any toxicity | less tissue damage, lower bacterial and neutrophil counts than infected controls; also recorded: low counts of both neutrophils and bacteria in the lungs | associated with the mycobacterial envelope within one hour of exposure and disrupted bacterial membranes; also recorded: associated with the mycobacterial membrane | only HNE showed peptide degradation |
